Experiments:
[1] = system: pS6RP(S235/236), PC3 cells; test: In-cell Western assay, pS6RP(S235/236) in PC3 cells; type: cell-based, human
Protocol: Cells from human prostate cancer cell line PC3 (American Type Culture Collection (ATCC), Manassas, Va. 20108 USA) were seeded at an optimal density of 22,000 cell/well in 96-well plates containing Ham's F12K medium (90 μL) and incubated overnight. The compound dilutions were carried out in 100% DMSO followed by a dilution in the medium. Test compounds were added in serial dilutions to the wells and incubated for 2 h. The cells were washed and fixed with 4% paraformaldehyde. After incubation at room temperature for 1 h in the dark, blocking was done for 2 h at room temperature. Primary antibodies for phosphorylated (p) AKT(5473) (phosphorylated at serine 473), pAKT(T308) (phosphorylated at threonine 308) and for pS6RP(S235/236) (phosphorylated at serine 235/236) (commercially available from Cell Signaling Technology®, whose protocol was followed for the in-cell western assay, were diluted to the required concentration and added to the corresponding wells followed by overnight incubation at 4° C. Eu-labeled rabbit (PE) (Perkin-Elmer USA catalog #AD0106) secondary antibody was added and incubated for 2 h at room temperature. Delfia® enhancement solution (cat #1244-105, Perkin Elmer USA) was subsequently added to the plate before taking the reading at 615 nm with excitation wavelength of 340 nm, after which 0.5 μg/mL of Hoechst® 33258 dye (Catalog #86140-5, Sigma) was added to the plate and fluorescence emission was read at 460 nm with 355 nm excitation, to evaluate the correction factor. IC50 values were calculated using a sigmoidal dose-response curve fit in GraphPad Prism® v5 software.

mTOR kinase = target: T1, mTOR kinase (Homo sapiens, UniProt P42345); test: mTOR kinase TR-FRET assay; type: biochemical; details: read-out: mTO R
T1 construct: purchased Millipore, USA
Procedure, shortened: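 Compounds preincubated 60 min with mTOR (5 ng) in HEPES pH 7.5, EGTA, MnCl2; ULight-p70 S6K Thr389 peptide (50 nM) and ATP (20 μM) then added, 60 min at room temperature. EDTA-stopped, Eu-anti-phospho antibody detection by TR-FRET (665/615 nm); IC50 from variable-slope sigmoidal fit.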

[2] = target: T2, PI3Kα (wild-type), P110/P85α (Homo sapiens, UniProt P42336); test: PI3 Kinase TR-FRET assay, PI3Kα (wild-type); type: biochemical
T2 construct: made in house; host or cells: SF9 insect cells
T2 sequence (P42336 whole entry): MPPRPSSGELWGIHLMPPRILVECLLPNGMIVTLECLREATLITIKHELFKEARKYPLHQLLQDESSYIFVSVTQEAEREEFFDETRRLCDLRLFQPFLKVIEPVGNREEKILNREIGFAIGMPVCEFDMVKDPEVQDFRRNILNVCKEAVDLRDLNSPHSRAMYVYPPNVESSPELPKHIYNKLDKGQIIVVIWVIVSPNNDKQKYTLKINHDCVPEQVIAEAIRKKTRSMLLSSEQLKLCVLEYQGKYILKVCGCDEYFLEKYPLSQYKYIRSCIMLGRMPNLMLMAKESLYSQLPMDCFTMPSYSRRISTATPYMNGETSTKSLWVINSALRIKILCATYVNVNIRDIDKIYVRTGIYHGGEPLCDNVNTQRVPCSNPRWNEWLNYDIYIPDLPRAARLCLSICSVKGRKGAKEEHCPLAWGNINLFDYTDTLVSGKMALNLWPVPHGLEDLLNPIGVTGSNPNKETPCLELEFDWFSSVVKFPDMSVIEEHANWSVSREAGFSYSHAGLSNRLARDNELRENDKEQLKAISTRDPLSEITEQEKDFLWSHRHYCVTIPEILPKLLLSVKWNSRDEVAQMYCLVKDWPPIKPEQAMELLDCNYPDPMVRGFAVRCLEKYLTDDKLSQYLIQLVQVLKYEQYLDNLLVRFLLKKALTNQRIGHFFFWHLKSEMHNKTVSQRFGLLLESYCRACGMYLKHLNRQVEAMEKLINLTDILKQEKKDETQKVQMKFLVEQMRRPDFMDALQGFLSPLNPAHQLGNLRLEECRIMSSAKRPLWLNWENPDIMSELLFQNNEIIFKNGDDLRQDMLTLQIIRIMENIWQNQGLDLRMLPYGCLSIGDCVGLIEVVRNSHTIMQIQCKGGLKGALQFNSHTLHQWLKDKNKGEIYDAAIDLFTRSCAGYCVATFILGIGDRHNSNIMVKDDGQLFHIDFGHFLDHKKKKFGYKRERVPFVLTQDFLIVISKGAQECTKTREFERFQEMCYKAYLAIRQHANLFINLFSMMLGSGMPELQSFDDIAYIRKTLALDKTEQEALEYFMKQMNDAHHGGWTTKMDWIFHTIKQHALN
T2 sequence (P27986 whole entry partner): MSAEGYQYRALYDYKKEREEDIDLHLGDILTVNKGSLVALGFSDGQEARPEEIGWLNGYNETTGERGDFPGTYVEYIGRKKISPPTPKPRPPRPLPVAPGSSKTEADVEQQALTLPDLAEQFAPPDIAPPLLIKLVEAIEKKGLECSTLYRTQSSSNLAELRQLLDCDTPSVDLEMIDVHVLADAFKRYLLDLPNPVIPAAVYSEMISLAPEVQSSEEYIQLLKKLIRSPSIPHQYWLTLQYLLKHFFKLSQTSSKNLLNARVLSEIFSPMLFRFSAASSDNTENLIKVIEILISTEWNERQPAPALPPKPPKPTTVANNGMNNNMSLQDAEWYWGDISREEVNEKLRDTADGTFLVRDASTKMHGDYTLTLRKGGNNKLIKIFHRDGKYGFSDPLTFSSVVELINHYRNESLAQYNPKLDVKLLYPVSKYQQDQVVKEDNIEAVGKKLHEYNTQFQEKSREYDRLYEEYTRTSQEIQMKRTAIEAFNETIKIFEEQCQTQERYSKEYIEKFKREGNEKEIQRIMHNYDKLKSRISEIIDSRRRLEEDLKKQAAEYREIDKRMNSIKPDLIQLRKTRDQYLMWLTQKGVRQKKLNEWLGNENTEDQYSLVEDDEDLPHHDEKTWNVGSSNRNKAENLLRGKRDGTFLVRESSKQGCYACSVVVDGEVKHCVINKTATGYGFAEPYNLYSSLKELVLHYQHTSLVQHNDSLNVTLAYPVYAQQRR
Procedure, shortened: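 Sf9-expressed His-purified P110/P85α (5 ng) preincubated 60 min RT with compound and PIP2 in buffer with 40 mM MgCl2, 5 mM DTT; reaction started with ATP (PIP2 and ATP both 10 μM), 30 min RT. PIP3 detected by TR-FRET displacement, 665/615 nm ratio; IC50 from dose-response curves.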

PC3 cells = test: XTT assay for cell viability, PC3 cells; type: cell-based, human; details: Homo sapiens, PC-3, cell viability
Procedure, shortened: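 PC3 cells seeded at 1000 cells/well, grown 24 h, then exposed to serial dilutions of compound for 96 h. Viability read by XTT dye at 37° C, absorbance 465 nm. EC50 from sigmoidal dose-response fit.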

[3] = Homo sapiens, PC-3, In-cell Western

Compound `CN(C)C1CCN(C(=O)c2ccc(NC(=O)Nc3ccc(-c4nc(N5CCOCC5)c5ncc(-c6cnn(C)c6)cc5n4)cc3)cc2)C1` (stereo in doubt) [Example 185, (S)-1-(4-(3-(dimethylamino)pyrrolidine-1-carbonyl)phenyl)-3-(4-(7-(1-methyl-1H-pyrazol-4-yl)-4-morpholino-pyrido[3,2-d]pyrimidin-2-yl)phenyl)urea] has an IC50 ([1]; In-cell Western) of 0.201 to 10 µM, an IC50 (mTOR kinase) of under 0.05 µM and an IC50 [2] of under 0.05 µM.

`CN(C)C1CCN(C(=O)c2ccc(NC(=O)Nc3ccc(-c4nc(N5CCOCC5)c5ccc(-c6cncnc6)cc5n4)cc3)cc2)C1` (stereo in doubt) [Example 188, (S)-1-(4-(3-(dimethylamino)pyrrolidine-1-carbonyl)phenyl)-3-(4-(4-morpholino-7-(pyrimidin-5-yl)quinazolin-2-yl)phenyl)urea] gave an IC50 ([1]; In-cell Western) of 0.201 to 10 µM, an IC50 (mTOR kinase) of under 0.05 µM and an IC50 [2] of under 0.05 µM.

`CN(C)C1CCN(C(=O)c2ccc(NC(=O)Nc3ccc(-c4nc(N5CCOCC5)c5cc(F)c(-c6cccnc6)cc5n4)cc3)cc2)C1` (stereo in doubt) [Example 198, (S)-1-(4-(3-(dimethylamino)pyrrolidine-1-carbonyl)phenyl)-3-(4-(6-fluoro-4-morpholino-7-(pyridin-3-yl)quinazolin-2-yl)phenyl)urea] showed an IC50 (PC3 cells) of 0.201 to 10 µM, an IC50 [1, 3] of 0.201 to 10 µM and an IC50 (mTOR kinase) of under 0.05 µM. It also gave an IC50 [2] of under 0.05 µM.

For `CN(C)C1CCN(C(=O)c2ccc(NC(=O)Nc3ccc(-c4nc(N5CCOCC5)c5ncc(-c6cncnc6)cc5n4)cc3)cc2)C1` (stereo in doubt) [Example 199, (S)-1-(4-(3-(dimethylamino)pyrrolidine-1-carbonyl)phenyl)-3-(4-(4-morpholino-7-(pyrimidin-5-yl)pyrido[3,2-d]pyrimidin-2-yl)phenyl)urea], the IC50 (PC3 cells) was 0.201 to 10 µM, the IC50 [1, 3] was 0.201 to 10 µM and the IC50 (mTOR kinase) was under 0.05 µM. For the same compound, the IC50 [2] was under 0.05 µM.

For `CN(C)C1CCN(C(=O)c2ccc(NC(=O)Nc3ccc(-c4nc(N5CCOCC5)c5ccc(-c6cncnc6)cc5n4)cc3F)cc2)C1` (stereo in doubt) [Example 207, (S)-1-(4-(3-(dimethylamino)pyrrolidine-1-carbonyl)phenyl)-3-(2-fluoro-4-(4-morpholino-7-(pyrimidin-5-yl)quinazolin-2-yl)phenyl)urea], the IC50 (PC3 cells) was under 0.1 µM, the IC50 [1, 3] was 0.201 to 10 µM and the IC50 (mTOR kinase) was under 0.05 µM. For the same compound, the IC50 [2] was under 0.05 µM.

`NC1CCN(C(=O)c2ccc(NC(=O)Nc3ccc(-c4nc(N5CCOCC5)c5ccc(-c6cncnc6)cc5n4)cc3F)cc2)C1` (stereo in doubt) [Example 208, (S)-1-(4-(3-aminopyrrolidine-1-carbonyl)phenyl)-3-(2-fluoro-4-(4-morpholino-7-(pyrimidin-5-yl)quinazolin-2-yl)phenyl)urea] gave an IC50 (PC3 cells) of 0.201 to 10 µM, an IC50 [1, 3] of 0.201 to 10 µM and an IC50 (mTOR kinase) of under 0.05 µM. For the same compound, the IC50 [2] was under 0.05 µM.

`CN(C)C1CCN(C(=O)c2ccc(NC(=O)Nc3ccc(-c4nc(N5CCOCC5)c5ncc(-c6cnn(C)c6)cc5n4)cc3F)cc2)C1` (stereo in doubt) [Example 210, (S)-1-(4-(3-(dimethylamino)pyrrolidine-1-carbonyl)phenyl)-3-(2-fluoro-4-(7-(1-methyl-1H-pyrazol-4-yl)-4-morpholino-pyrido[3,2-d]pyrimidin-2-yl)phenyl)urea] showed an IC50 ([1]; In-cell Western) of 0.201 to 10 µM, an IC50 (mTOR kinase) of under 0.05 µM and an IC50 [2] of under 0.05 µM.

`CN(C)C1CCN(C(=O)c2ccc(NC(=O)Nc3ccc(-c4nc(N5CCOCC5)c5ncc(-c6cccnc6F)cc5n4)cc3F)cc2)C1` (stereo in doubt) [Example 213, (S)-1-(4-(3-(dimethylamino)pyrrolidine-1-carbonyl)phenyl)-3-(2-fluoro-4-(7-(2-fluoropyridin-3-yl)-4-morpholino-pyrido[3,2-d]pyrimidin-2-yl)phenyl)urea] gave an IC50 (PC3 cells) of 0.201 to 10 µM, an IC50 [1, 3] of 0.201 to 10 µM and an IC50 (mTOR kinase) of under 0.05 µM. It also gave an IC50 [2] of under 0.05 µM.

`Cc1noc(C)c1-c1ccc2c(N3CCOCC3)nc(-c3ccc(NC(=O)Nc4ccc(C(=O)N5CCC(N(C)C)C5)cc4)cc3)nc2c1` (stereo in doubt) [Example 220, (S)-1-(4-(3-(dimethylamino)pyrrolidine-1-carbonyl)phenyl)-3-(4-(7-(3,5-dimethylisoxazol-4-yl)-4-morpholino-quinazolin-2-yl)phenyl)urea] gave an IC50 (PC3 cells) of 0.201 to 10 µM, an IC50 [1, 3] of 0.201 to 10 µM and an IC50 (mTOR kinase) of under 0.05 µM. For the same compound, the IC50 [2] was 0.05 to 0.2 µM.

`CN(C)C1CCN(C(=O)c2ccc(NC(=O)Nc3ccc(-c4nc(N5CCOCC5)c5ccc(C(C)(C)O)cc5n4)cc3)cc2)C1` (stereo in doubt) [Example 289, (S)-1-(4-(3-(dimethylamino)pyrrolidine-1-carbonyl)phenyl)-3-(4-(7-(2-hydroxypropan-2-yl)-4-morpholino-quinazolin-2-yl)phenyl)urea] showed an IC50 (PC3 cells) of 0.201 to 10 µM, an IC50 [1, 3] of 0.201 to 10 µM and an IC50 (mTOR kinase) of under 0.05 µM. It also gave an IC50 [2] of 0.05 to 0.2 µM.

For `CN(C)C(=O)c1ccc(NC(=O)Nc2ccc(-c3nc(N4CCOCC4)c4ccc(C(C)(C)O)cc4n3)cc2)cc1` [Example 16, 4-(3-(4-(7-(2-hydroxypropan-2-yl)-4-morpholino-quinazolin-2-yl)phenyl)ureido)-N,N-dimethyl-benzamide], the IC50 (PC3 cells) was 0.201 to 10 µM, the IC50 [1, 3] was 0.201 to 10 µM and the IC50 (mTOR kinase) was under 0.05 µM. The IC50 [2] was under 0.05 µM.

With `CN(C)C(=O)c1ccc(NC(=O)Nc2ccc(-c3nc(N4CCOCC4)c4cccc(-c5cccnc5F)c4n3)cc2)cc1` [Example 40, 4-(3-{4-[8-(2-fluoro-pyridin-3-yl)-4-morpholin-4-yl-quinazolin-2-yl]-phenyl}-ureido)-N,N-dimethyl-benzamide] the IC50 (PC3 cells) was 0.1 to 0.5 µM, the IC50 [1, 3] was under 0.1 µM and the IC50 (mTOR kinase) was under 0.05 µM. For the same compound, the IC50 [2] was 0.05 to 0.2 µM.

Compound `CN(C)C(=O)c1ccc(NC(=O)Nc2ccc(-c3nc(N4CCOCC4)c4ccc(-c5cccc(O)c5)cc4n3)cc2)cc1` [Example 41, 4-(3-{4-[7-(3-hydroxy-phenyl)-4-morpholin-4-yl-quinazolin-2-yl]-phenyl}-ureido)-N,N-dimethyl-benzamide] has an IC50 (PC3 cells) of 0.1 to 0.5 µM, an IC50 [1, 3] of under 0.1 µM and an IC50 (mTOR kinase) of 0.05 to 0.2 µM. It also gave an IC50 [2] of under 0.05 µM.

Work on `Cc1ccc(-c2ccc3c(N4CCOCC4)nc(-c4ccc(NC(=O)Nc5ccc(C(=O)N6CC[C@@H](N(C)C)C6)cc5)cc4)nc3c2)o1` [Example 196, (R)-1-(4-(3-(dimethylamino)pyrrolidine-1-carbonyl)phenyl)-3-(4-(7-(5-methylfuran-2-yl)-4-morpholino-quinazolin-2-yl)phenyl)urea] yielded an IC50 [1, 3] of under 0.1 µM, an IC50 (mTOR kinase) of under 0.05 µM and an IC50 [2] of 0.05 to 0.2 µM.

For `CN(C)[C@@H]1CCN(C(=O)c2ccc(NC(=O)Nc3ccc(-c4nc(N5CCOCC5)c5cc(F)c(-c6cccnc6)cc5n4)cc3)cc2)C1` [Example 200, (R)-1-(4-(3-(dimethylamino)pyrrolidine-1-carbonyl)phenyl)-3-(4-(6-fluoro-4-morpholino-7-(pyridin-3-yl)quinazolin-2-yl)phenyl)urea], the IC50 ([1]; In-cell Western) was 0.201 to 10 µM, the IC50 (mTOR kinase) was under 0.05 µM and the IC50 [2] was under 0.05 µM.

In the case of `N[C@@H]1CCN(C(=O)c2ccc(NC(=O)Nc3ccc(-c4nc(N5CCOCC5)c5ccc(-c6cncnc6)cc5n4)cc3F)cc2)C1` [Example 209, (R)-1-(4-(3-aminopyrrolidine-1-carbonyl)phenyl)-3-(2-fluoro-4-(4-morpholino-7-(pyrimidin-5-yl)quinazolin-2-yl)phenyl)urea], the IC50 ([1]; In-cell Western) is reported as 0.201 to 10 µM, the IC50 (mTOR kinase) is reported as under 0.05 µM and the IC50 [2] is reported as under 0.05 µM.

Source: patent publication US9115092B2, “Substituted quinazoline and pyrido-pyrimidine derivatives” (Asana Biosciences, LLC, priority 2010, dated 2015)
